This is an account of results in patent publication US10508120B2, “TYK2 inhibitors and uses thereof” (Nimbus Lakshmi, Inc., priority 2017, dated 2019).

For orientation: inhibition means the share of the control response that was lost under treatment. Broadly, the Kd is a measure of binding affinity in units of concentration. Higher therefore signals weaker binding.

One assay deals with JAK2 kinase domain (JH1) (Homo sapiens (Human), UniProt O60674). In words: JAK2 Radioactive Kinase Assay. Format: biochemical. As to conditions: 10 μM compound, 10 μM ATP; for inhibition at 10 µM: read-out: JAK2 JH1% Inhibition @ 10 μM. On the procedure:
The Tyk2 and JAK2 radioactive kinase assay measures the percent inhibition at the Tyk2 kinase domain (DH1) and the percent inhibition at the JAK2 kinase domain (JH1). Results of the assay are expressed as percent inhibition at 10 μM.

The target of assay [1] is human TYK2 (JH2domain-pseudokinase) (Homo sapiens (Human), UniProt P29597). In words: TYK2 JH2 Domain Binding Assay (KINOMEscan). The gist of the method:
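Displacement of a DNA-tagged TYK2 JH2 fusion (human, aa G556–D888, HEK293 extract, <0.1 nM) from ligand-coated beads over 1 h at RT; binding buffer PBS/0.05% Tween 20/10 mM DTT/0.1% BSA.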

JAK2 kinase domain (JH1), sequence (O60674 849-1124): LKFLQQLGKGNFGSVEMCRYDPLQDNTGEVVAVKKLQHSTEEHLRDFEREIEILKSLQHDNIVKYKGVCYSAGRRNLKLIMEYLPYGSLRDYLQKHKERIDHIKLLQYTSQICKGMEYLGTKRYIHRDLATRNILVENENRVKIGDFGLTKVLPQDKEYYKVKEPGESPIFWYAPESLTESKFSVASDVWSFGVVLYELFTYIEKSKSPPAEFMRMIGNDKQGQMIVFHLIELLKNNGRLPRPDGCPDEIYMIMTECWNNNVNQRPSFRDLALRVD
human TYK2 (JH2domain-pseudokinase), sequence (P29597 556-888): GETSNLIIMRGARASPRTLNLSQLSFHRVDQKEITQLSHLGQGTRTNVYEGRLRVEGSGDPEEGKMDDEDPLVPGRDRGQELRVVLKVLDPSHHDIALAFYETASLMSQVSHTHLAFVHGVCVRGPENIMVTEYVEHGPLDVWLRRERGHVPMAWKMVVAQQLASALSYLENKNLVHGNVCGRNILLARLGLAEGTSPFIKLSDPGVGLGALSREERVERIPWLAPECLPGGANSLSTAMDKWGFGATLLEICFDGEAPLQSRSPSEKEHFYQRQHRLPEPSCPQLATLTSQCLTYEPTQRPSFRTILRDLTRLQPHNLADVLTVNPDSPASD

Consider `CNc1cc(Nc2cccn(-c3cccnc3C)c2=O)nc2c(C(=O)N[C@H]3CC[C@@H]3OC)cnn12` [I-865], for which, at JAK2 kinase domain (JH1), the inhibition at 10 µM was below 50%.

Consider `CNc1cc(Nc2cccn([C@H]3CCCOC3)c2=O)nc2c(C(=O)N[C@@H]3CC[C@H]3OC)cnn12` [I-876], for which the “JAK2 JH1% Inhibition @ 10 μM” value on JAK2 kinase domain (JH1) is on record as “A (percent inhibition at 10 μM lower than 50)”.

As for `CNc1cc(Nc2cccn([C@@H]3CCCOC3)c2=O)nc2c(C(=O)N[C@H]3CC[C@@H]3OC)cnn12` [I-903, N-((1S,2S)-2-methoxycyclobutyl)-7-(methylamino)-5-((2-oxo-1-((R)-tetrahydro-2H-pyran-3-yl)-1,2-dihydropyridin-3-yl)amino)pyrazolo[1,5-a]pyrimidine-3-carboxamide], the inhibition at 10 µM on JAK2 kinase domain (JH1) is below 50%.

Take `CNc1cc(Nc2cccn(-c3cccnc3C)c2=O)nc2c(C(=O)N[C@H]3CC[C@@H]3OC)cnn12` [I-924]: the “JAK2 JH1% Inhibition @ 10 μM” value at JAK2 kinase domain (JH1) is on record as “A (percent inhibition at 10 μM lower than 50)”.

For `CNc1cc(Nc2cccn(-c3cccnc3C)c2=O)nc2c(C(=O)N[C@@H]3CC[C@H]3OC)cnn12` [I-925], the inhibition at 10 µM on JAK2 kinase domain (JH1) was below 50%.

Turning to `CNc1cc(Nc2cccn(-c3cncc(F)c3)c2=O)nc2c(C(=O)N[C@H]3CC[C@@H]3OC)cnn12` [I-1084], the inhibition at 10 µM on JAK2 kinase domain (JH1) was below 50%.

As for `CNc1cc(Nc2cccn(-c3cncc(F)c3)c2=O)nc2c(C(=O)N[C@@H]3CC[C@H]3OC)cnn12` [I-1085], the inhibition at 10 µM at JAK2 kinase domain (JH1) is below 50%.

`CNc1cc(Nc2cccn([C@@H]3CCC[C@@H](OC)C3)c2=O)nc2c(C(=O)N[C@@H]3CC[C@H]3OC)cnn12` [I-1330]: the Kd in assay [1] was below 0.2 nM.

In assay [1], `CNc1cc(Nc2cccn([C@@H]3CCN(CCF)C3)c2=O)nc2c(C(=O)N[C@H]3CC[C@@H]3OC)cnn12` [I-1332] came in with a Kd of 1 to 10 nM.

`CNc1cc(-c2cn(C3CC3)c3ncccc23)nc2c(C(=O)N[C@H]3CCC[C@]3(C)O)cnn12` [I-1335]: the Kd in assay [1] is below 0.2 nM.

In assay [1], `CNc1cc(-c2cn(C3CCOCC3)c3ncccc23)nc2c(C(=O)N[C@H]3CCC[C@]3(C)O)cnn12` [I-1336] displayed a Kd of 1 to 10 nM.

`CNc1cc(Nc2cccn(C(C)C)c2=O)nc2c(C(=O)N[C@@H]3CCC[C@@](C)(O)C3)cnn12` [I-1337] showed a dissociation constant (Kd) in assay [1] below 0.2 nM.

In turn, `CNc1cc(Nc2cccn([C@@H]3CCCC[C@@H]3O)c2=O)nc2c(C(=O)N[C@H]3CC[C@@H]3OC)cnn12` [I-1338] had a Kd in assay [1] of 0.2 to 1 nM.

In the case of `CNc1cc(Nc2cccn([C@@H]3CCCC[C@@H]3O)c2=O)nc2c(C(=O)N[C@@H]3CC[C@H]3OC)cnn12` [I-1339], the equilibrium dissociation constant (Kd) in assay [1] lay within 0.2 to 1 nM.

As for `CNc1cc(Nc2cccn3cnnc23)nc2c(C(=O)N[C@@H]3CC[C@H]3OC)cnn12` [I-1342], in assay [1], the Kd is below 0.2 nM.

In assay [1], `CNc1cc(Nc2cccn([C@H]3CC[C@H]3O)c2=O)nc2c(C(=O)N[C@@H]3CC[C@H]3OC)cnn12` [I-1344] displayed a Kd of 0.2 to 1 nM.

As for `CNc1cc(Nc2cccn([C@H]3CC[C@H]3O)c2=O)nc2c(C(=O)N[C@H]3CC[C@@H]3OC)cnn12` [I-1345], in assay [1], the Kd was below 0.2 nM.

Consider `CNc1cc(Nc2cccn([C@@H]3CCCN(CCC#N)C3)c2=O)nc2c(C(=O)NC3CC3)cnn12` [I-1346, (R)-5-((1-(1-(2-cyanoethyl)piperidin-3-yl)-2-oxo-1,2-dihydropyridin-3-yl)amino)-N-cyclopropyl-7-(methylamino)pyrazolo[1,5-a]pyrimidine-3-carboxamide], for which the Kd in assay [1] is below 0.2 nM.

As for `CNc1cc(Nc2cccn([C@H]3CCCN(CCC#N)C3)c2=O)nc2c(C(=O)NC3CC3)cnn12` [I-1347, (S)-5-((1-(1-(2-cyanoethyl)piperidin-3-yl)-2-oxo-1,2-dihydropyridin-3-yl)amino)-N-cyclopropyl-7-(methylamino)pyrazolo[1,5-a]pyrimidine-3-carboxamide], in assay [1], the dissociation constant Kd fell in the range of 1 to 10 nM.

The compound `CNc1cc(Nc2cccn(C3CCCCC3)c2=O)nc2c(C(=O)N[C@@H]3COC[C@@H]3O)cnn12` [I-1348] gave a Kd in assay [1] below 0.2 nM.

In assay [1], `CNc1cc(Nc2cccn(C3CCCCC3)c2=O)nc2c(C(=O)N[C@H]3COC[C@H]3O)cnn12` [I-1349] displayed a Kd of 1 to 10 nM.

As to `CNc1cc(Nc2cccn([C@@H]3CC[C@@H]3O)c2=O)nc2c(C(=O)N[C@H]3CC[C@@H]3OC)cnn12` [I-1351], the dissociation constant Kd in assay [1] is below 0.2 nM.

In assay [1], `CNc1cc(-c2cn(C3CC3)c3ncccc23)nc2c(C(=O)N[C@H]3COC[C@H]3O)cnn12` [I-1356] came in with a Kd below 0.2 nM.

For the compound `CNc1cc(Nc2cccn(C3CCOCC3)c2=O)nc2c(C(=O)N[C@@H]3CC[C@H](O)C3)cnn12` [I-1357], the Kd in assay [1] was above 10 nM.

On to `CNc1cc(Nc2cccn([C@H]3CCC[C@@H](C#N)C3)c2=O)nc2c(C(=O)N[C@@H]3C[C@@H]3F)cnn12` [I-1360], for which the Kd in assay [1] is below 0.2 nM.

Turning to `CNc1cc(Nc2cccn([C@H]3CCC[C@@H](C#N)C3)c2=O)nc2c(C(=O)NC3CC3)cnn12` [I-1361], in assay [1], the Kd fell in the range of 0.2 to 1 nM.

Take `CNc1cc(-c2cn([C@H]3CCN(CCF)C3)c3ncccc23)nc2c(C(=O)NC3CC3)cnn12` [I-1363]: the Kd in assay [1] was 0.2 to 1 nM.

For the compound `CNc1cc(-c2cn([C@@H]3CCN(CCF)C3)c3ncccc23)nc2c(C(=O)NC3CC3)cnn12` [I-1367, (R)—N-cyclopropyl-5-(1-(1-(2-fluoroethyl)pyrrolidin-3-yl)-1H-pyrrolo[2,3-b]pyridin-3-yl)-7-(methylamino)pyrazolo[1,5-a]pyrimidine-3-carboxamide], the Kd in assay [1] is below 0.2 nM.

In turn, `CNc1cc(Nc2cccn(-c3cnn(C)c3F)c2=O)nc2c(C(=O)N[C@@H]3CC[C@H]3OC)cnn12` [I-1368] gave a Kd in assay [1] below 0.2 nM.

On to `CNc1cc(Nc2cccn(C(C)C)c2=O)nc2c(C(=O)N[C@@H]3CC[C@]3(C)O)cnn12` [I-1370], for which, in assay [1], the Kd fell in the range of 1 to 10 nM.

For `CNc1cc(Nc2cccn(C(C)C)c2=O)nc2c(C(=O)N[C@H]3CC[C@@]3(C)O)cnn12` [I-1371], in assay [1], the Kd was below 0.2 nM.

Regarding `CNc1cc(Nc2cccn([C@H]3CCC[C@H]3O)c2=O)nc2c(C(=O)N[C@@H]3CC[C@H]3OC)cnn12` [I-1372], the dissociation constant Kd in assay [1] fell in the range of 0.2 to 1 nM.

Consider `CNc1cc(Nc2cccn([C@H]3CCC[C@H](OC)C3)c2=O)nc2c(C(=O)N[C@H]3CC[C@@H]3OC)cnn12` [I-1375], for which, in assay [1], the Kd was in the range of 1 to 10 nM.

With `CNc1cc(Nc2cccn([C@H]3CCCC[C@H]3OC)c2=O)nc2c(C(=O)N[C@@H]3CC[C@H]3OC)cnn12` [I-1376], the Kd in assay [1] is above 10 nM.

On to `CNc1cc(Nc2cccn([C@H]3CCN(CCF)C3)c2=O)nc2c(C(=O)N[C@@H]3CC[C@H]3OC)cnn12` [I-1380], for which, in assay [1], the Kd is below 0.2 nM.

On to `CNc1cc(Nc2cccn([C@@H]3CCCN(CCF)C3)c2=O)nc2c(C(=O)N[C@@H]3CC[C@H]3OC)cnn12` [I-1383], for which, in assay [1], the Kd lay within 1 to 10 nM.

As for `CNc1cc(Nc2cccn([C@H]3CC[C@@H]3O)c2=O)nc2c(C(=O)N[C@@H]3CC[C@H]3OC)cnn12` [I-1384], the Kd in assay [1] lay in the range of 0.2 to 1 nM.

On to `CNc1cc(-c2cn(C(C)C)c3ncc(F)cc23)nc2c(C(=O)N[C@@H]3CC[C@@H]3O)cnn12` [I-1386], for which the Kd in assay [1] fell in the range of 1 to 10 nM.

Compound `CNc1cc(Nc2cccn(C3CC(F)(F)C3)c2=O)nc2c(C(=O)N[C@H]3CC[C@@H]3O)cnn12` [I-1390] gave a Kd in assay [1] of 1 to 10 nM.

Take `CNc1cc(Nc2cccn(C3CC(F)(F)C3)c2=O)nc2c(C(=O)N[C@@H]3CC[C@@H]3O)cnn12` [I-1391]: the equilibrium dissociation constant (Kd) in assay [1] was below 0.2 nM.

For the compound `CNc1cc(-c2cn(C(C)C)c3ncc(F)cc23)nc2c(C(=O)N[C@@H]3CC[C@H]3OC)cnn12` [I-1392], the Kd in assay [1] fell in the range of 0.2 to 1 nM.

`CNc1cc(Nc2cccn([C@@H]3CCC[C@@H]3O)c2=O)nc2c(C(=O)N[C@@H]3CC[C@H]3OC)cnn12` [I-1393]: in assay [1], the Kd was below 0.2 nM.

For the compound `CNc1cc(Nc2cccn([C@@H]3CCC[C@@H]3O)c2=O)nc2c(C(=O)N[C@H]3CC[C@@H]3OC)cnn12` [I-1394], the Kd in assay [1] was below 0.2 nM.

In assay [1], `CNc1cc(Nc2cccn([C@H]3CCC[C@H](O)C3)c2=O)nc2c(C(=O)N[C@H]3CC[C@@H]3OC)cnn12` [I-1396] displayed a Kd of 0.2 to 1 nM.

Turning to `CNc1cc(Nc2cccn([C@@H]3C[C@H]3F)c2=O)nc2c(C(=O)NCC(C)(C)CO)cnn12` [I-1399], in assay [1], the Kd was in the range of 1 to 10 nM.

In assay [1], `CNc1cc(Nc2cccn([C@@H]3C[C@H]3F)c2=O)nc2c(C(=O)N[C@H]3CC[C@@H]3O)cnn12` [I-1401] displayed a dissociation constant Kd below 0.2 nM.

Compound `CNc1cc(Nc2cccn([C@@H]3C[C@H]3F)c2=O)nc2c(C(=O)N[C@@H]3CC[C@H]3O)cnn12` [I-1402] came in with a Kd in assay [1] of 1 to 10 nM.

Take `CNc1cc(Nc2cccn([C@@H]3C[C@H]3F)c2=O)nc2c(C(=O)N[C@@H]3CC[C@@H]3O)cnn12` [I-1403]: the Kd in assay [1] lay in the range of 0.2 to 1 nM.

`CNc1cc(-c2cn(C3CCOCC3)c3ncccc23)nc2c(C(=O)N[C@H]3CC[C@@H]3O)cnn12` [I-1405] yielded an equilibrium dissociation constant (Kd) in assay [1] of 1 to 10 nM.

In the case of `CNc1cc(Nc2cccn(C(C)C)c2=O)nc2c(C(=O)N[C@H]3COC[C@H]3O)cnn12` [I-1406], the Kd in assay [1] is above 10 nM.

As to `CNc1cc(Nc2cccn(-c3cccc(F)c3)c2=O)nc2c(C(=O)N[C@H]3COC[C@H]3O)cnn12` [I-1407], in assay [1], the Kd is below 0.2 nM.

On to `CNc1cc(-c2cn(C3CCOCC3)c3ncccc23)nc2c(C(=O)N[C@H]3COC[C@H]3O)cnn12` [I-1408], for which the Kd in assay [1] was in the range of 0.2 to 1 nM.

`CNc1cc(-c2cn(C(C)C)c3ncccc23)nc2c(C(=O)N[C@H]3CC[C@@]3(C)O)cnn12` [I-1409] returned a Kd in assay [1] of 0.2 to 1 nM.

With `CNc1cc(Nc2cccn([C@H]3CC[C@H]3O)c2=O)nc2c(C(=O)N[C@H]3CC[C@@H]3OC)cnn12` [I-1410], the Kd in assay [1] was below 0.2 nM.

Regarding `CNc1cc(Nc2cccn(-c3ccccn3)c2=O)nc2c(C(=O)N[C@H]3C[C@@H]3OC)cnn12` [I-1412], in assay [1], the Kd lay in the range of 0.2 to 1 nM.

With `CNc1cc(Nc2cccn([C@@H]3CCCOC3)c2=O)nc2c(C(=O)N[C@H]3C[C@@H]3OC)cnn12` [I-1414], the Kd in assay [1] was above 10 nM.
